The source of these data is patent US20240025966A1, “CD47 BLOCKADE AND COMBINATION THERAPIES THEREOF FOR REDUCTION OF VASCULAR INFLAMMATION” (The Board of Trustees of the Leland Stanford Junior …, priority 2020, published 2024).

In one assay the test system is NFκB1 p50. In words: NFκB1 p50 nuclear translocation by immunofluorescence and Western blot. Type of assay: cell-based, mouse. The note with it: smooth muscle cells, 10 μM atorvastatin + 100 μM mevalonate. (In general: In western blotting, separated proteins are transferred to a membrane and probed.)
A further assay concerns RAW 264.7 macrophages. In words: Apoptosis assay (Caspase-Glo 3/7). In kind it is cell-based, mouse. The conditions noted are these: with or without 1 μM staurosporine, 4 hours. The procedure: The apoptosis assay was performed as previously described (Kojima et al., Nature 536, 86-90, 2016). To evaluate apoptosis, the luminometric Caspase-Glo 3/7 Assay System (Promega, Catalogue #G8091) was performed on cultured murine RAW 264.7 macrophages, according to the manufacturer's protocol. Cells were seeded in 96-well plates at the density of 10,000 cells per well, grown at 37° C. and serum-starved for 24 hours. […] For quantification, an iD3 luminometer (Molecular Devices) was used.

In the next assay the test system is CD47. In words: Cd47 expression by quantitative PCR, flow cytometry and immunofluorescence. Type of assay: cell-based, mouse. The note with it: smooth muscle cells, 50 ng/ml TNF-α + 10 μM atorvastatin, 48 hours; compared to macrophages. How it is done:
RNA was extracted from cell lysates using the miRNeasy Mini Kit (Qiagen, Catalogue #217004) according to the manufacturer's protocol or the TRIzol method (Invitrogen, Catalogue #15596026). Then, RNA was quantified with a NanoDrop One (Thermo Scientific). RNA was reverse transcribed using the High-Capacity RNA-to-cDNA Synthesis Kit (Applied 1 Biosystems, Catalogue #4387406). Quantitative PCR of the cDNA samples was performed on a ViiA7 Real-Time PCR system or a QuantStudio 5 (both Applied Biosystems). Gene expression levels were measured using TaqMan Universal Master Mix II (Applied Biosystems, Catalogue #4440047, Lot #00762728) and commercially available TaqMan primers (Applied Biosystems). Data were quantified with the 2^−ΔΔCt method and normalized to Gapdh as an internal control. […]
Cells were washed, harvested, and stained with an anti-CD47 antibody (BD Life Sciences, Catalogue #561890, FITC, MIAP301, 0.5 mg/ml) or an isotype control antibody (BD Life Sciences, Catalogue #553929, FITC, R35-95, 0.5 mg/ml) after Fc receptor blockade (BD Biosciences, Catalogue #553142, anti-mouse CD16/CD32). Expression was quantified using the LSRII (BD Life Sciences, Stanford Shared FACS Facility) and analysed by FlowJo10.7.1 (BD Life Sciences). […]
On the technique in general: Flow cytometry measures light scatter and fluorescence of single cells or particles in a stream.

The test system of a further assay is CD47 promoter. In words: CD47 promoter luciferase reporter assay. Type of assay: cell-based, mouse. The conditions noted are these: smooth muscle cells, 50 ng/ml TNF-α + 10 μM atorvastatin, 24 hours. The procedure: The luciferase reporter assay was performed as previously described (Kojima et al., Nature 536, 86-90, 2016). CD47 LightSwitch Promoter Reporter GoClones (RenSP, S710450) and Cypridina TK Control constructs (pTK-Cluc, SN0322S) were obtained from SwitchGear Genomics. 45 ng of the RenSP reporter and 5 ng of the pTK-Cluc reporter construct were transfected into mouse smooth muscle cells using Lipofectamine 3000 Transfection 1 Reagent (Thermo Scientific, Catalogue #L3000-008) and Opti-MEM I Reduced Serum Medium (Thermo Scientific, Catalogue #31985062). […] The cell lysate and supernatant were harvested 24 hours after stimulation/treatment und dual luciferase activity was measured with the LightSwitch Luciferase Assay Kit (Active Motif, Catalogue #32031, NC0999256) and Pierce Cypridina Luciferase Glow Assay Kit (Thermo Scientific, P116170) using an iD3 luminometer (Molecular Devices). Relative luciferase activity (RenSP/Cypridina ratio) was quantified as the percentage change relative to the basal value obtained from control-transfected cells.
For orientation: Reporter assays use an easily measured gene product as a stand-in for the process of interest.

The subject of a further assay is humans. Nature of the assay: Retrospective analysis of 18F-FDG-PET/CT scans of patients treated with magrolimab. In kind it is in vivo, human. The note with it: mean±SD, n=9. How it is done: Study population and design. The 13 participants enrolled in the first-in-human clinical trials of magrolimab at Stanford University were identified for inclusion in this retrospective analysis. These patients had refractory or relapsed B-cell lymphoma and had become refractory to rituximab alone or in combination with chemotherapy prior to enrollment. The protocol was reviewed and approved by the institutional review board at Stanford University (IRB #55497). Participants were treated with magrolimab in combination with background rituximab therapy. […]
^18F-FDG-PET/CT scans and analysis. […] Images were anonymized and analyzed using MIM Vista version 6.9.2 (MIM Software Inc., Cleveland, OH). The analyses were performed as previously described, and vascular uptake was quantified in the carotid arteries to avoid confounding by signal present in the mediastinal lymph nodes. Briefly, the carotid artery bifurcations on both sides were identified and arterial FDG uptake was measured starting 2 cm below the carotid artery bifurcation and continuing superiorly to 2 cm into the internal carotid artery. […] The maximum target-to-background ratio (TBR) was calculated (ratio of the maximum SUV of the artery compared to background activity in the ipsilateral internal jugular vein). […] This was calculated as an average maximum TBR derived from four contiguous axial segments. […]

Description for NFκB1 p50: Mouse smooth muscle cells were seeded in Millicell EZ Slides 1 (Sigma-Aldrich, Catalogue #PEZGS0416 or Catalogue #PEZGS0816). […] Following stimulation/treatment, cells were rinsed with PBS and fixed with 4% phosphate-buffered paraformaldehyde. For CD47 staining (BioXCell, MIAP410, 25 μg/ml), vector mouse-on-mouse fluorescein Immunodetection Kit (Thermo Scientific, Catalogue #NC9801950) was used according to the manufacturer's instructions. For NFκB1 p105/p50 staining, cells were blocked with 5% goat serum (Sigma-Aldrich, Catalogue #G9023) for 30 minutes, then incubated with NFκB1 p105/p50 (Cell Signaling Technology, Catalogue #13586S, D4P4D, 1:200) overnight at 4° C. […] Images were captured using a Leica DMi8 microscope (equipped with a Leica DMC4500 colour camera and a Leica K5 camera for fluorescence imaging).
Total protein was isolated from mouse smooth muscle cells using a subcellular protein fractionation kit (Thermo Scientific, Catalogue #78840) supplemented with Halt Protease and Phosphatase Inhibitor Cocktail (Thermo Scientific, Catalogue #78442). The protein concentration in each sample was measured using Pierce BCA Protein Assay Kit (Thermo Scientific, Catalogue #23225). […] Membranes were then scanned with an iBright 1500 Imaging System (Thermo Scientific) for quantitative analysis using Image J/FIJI software (Version: 2.0.0/1.52p, NIH).

For `CC(O)(CCOP(=O)(O)O)CC(=O)O` (racemic) [DL-mevalonic acid 5-phosphate], in the assay with NFκB1 p50, the “effect of atorvastatin on NFκB1 p50 nuclear translocation with the addition of mevalonate” value is “eliminated”.

`CC(C)c1c(C(=O)Nc2ccccc2)c(-c2ccccc2)c(-c2ccc(F)cc2)n1CC[C@@H](O)C[C@@H](O)CC(=O)O` [atorvastatin]: the “rate of programmed cell death (apoptosis)” value in the assay on RAW 264.7 macrophages was “not found”. For the same molecule, in the assay with CD47, the “CD47 RNA level” value is “larger reduction” and the CD47 protein level entry is “larger reduction”. Besides, in the assay on CD47 promoter, the “tumor necrosis factor-α induced CD47 promoter activity” value was “inhibit”.

As to “magrolimab: humanized anti-CD47 antibody, the first macrophage checkpoint inhibitor”, the “18F-FDG uptake measured by maximum SUV” value with humans (most diseased segment of the index vessel (carotid) after magrolimab 20 to 45 mg/kg weekly with background rituximab, baseline 2.75±0.58, p=0.01) was determined as 2.09±0.53. Besides, the “18F-FDG uptake measured by maximum TBR” value in the assay on humans (most diseased segment of the index vessel (carotid) after magrolimab with background rituximab, baseline 1.56±0.22, p=0.006) is listed as 1.28±0.11.
